Test results from patent US20230278995A1, “1,3,4-OXADIAZOLE DERIVATIVE COMPOUNDS AS HISTONE DEACETYLASE 6 INHIBITOR, AND THE PHARMACEUTICAL COMPOSITION COMPRISING THE SAME” (CHONG KUN DANG PHARMACEUTICAL CORP., priority 2020, published 2023).

Columns and labels:
human recombinant HDAC1 = biological target: T1, human recombinant HDAC1 (Homo sapiens, UniProt Q13547); experiment: HDAC enzyme activity inhibition assay (HDAC Fluorimetric Drug Discovery Kit), HDAC1; type: biochemical; conditions: human recombinant HDAC1, Fluor de Lys-SIRT1 substrate, 30° C. 60 minutes
T1 construct: purchased Enzo Life Sciences, Inc. BML-SE456
T1 sequence (Q13547 whole entry): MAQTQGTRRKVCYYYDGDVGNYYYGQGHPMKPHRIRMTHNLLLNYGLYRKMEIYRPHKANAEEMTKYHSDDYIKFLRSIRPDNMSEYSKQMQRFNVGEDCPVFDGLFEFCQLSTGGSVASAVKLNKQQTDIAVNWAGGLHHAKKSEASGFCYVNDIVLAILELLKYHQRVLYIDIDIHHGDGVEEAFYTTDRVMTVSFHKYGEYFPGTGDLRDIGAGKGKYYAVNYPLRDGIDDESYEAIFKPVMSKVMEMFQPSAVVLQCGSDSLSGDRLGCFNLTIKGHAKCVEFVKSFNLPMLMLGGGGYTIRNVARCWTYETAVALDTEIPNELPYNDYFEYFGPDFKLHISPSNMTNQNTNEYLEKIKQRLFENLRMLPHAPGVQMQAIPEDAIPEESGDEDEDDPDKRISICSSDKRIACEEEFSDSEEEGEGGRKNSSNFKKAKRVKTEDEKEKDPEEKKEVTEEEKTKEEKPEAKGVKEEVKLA
Description: (§1) For the HDAC1 enzyme activity test, human recombinant HDAC1 (BML-SE456) was used as an enzyme source and Fluor de Lys©-SIRT1 (BNL-K1177) was used as a substrate. After dispensing 5-fold diluted compounds into a 96-well plate, 0.3 μg of enzyme and 10 μM substrate were added to each well of the plate and allowed to react at 30° C. for 60 minutes. Next, Fluor de Lys© Developer II (BML-K1176) was added and reacted for 30 minutes to complete the reaction, and then the fluorescence values (Ex 360, Em 460) were measured using a multi-plate reader (Flexstation 3, Molecular Device). The HDAC6 enzymes were tested using human recombinant HDAC6 (382180) from Calbiochem Inc., according to the same protocol as the HDAC1 enzyme activity test method. With respect to the final result values, respective IC50 values were calculated using GraphPad Prism 4.0 program (Table 2).

human recombinant HDAC6 = biological target: T2, human recombinant HDAC6 (Homo sapiens, UniProt Q9UBN7); experiment: HDAC enzyme activity inhibition assay (HDAC Fluorimetric Drug Discovery Kit), HDAC6; type: biochemical; conditions: for HDAC6 selectivity (fold): HDAC1 vs HDAC6; for IC50: human recombinant HDAC6, same protocol as HDAC1
T2 construct: purchased Calbiochem Inc. 382180
T2 sequence (Q9UBN7 1-1215): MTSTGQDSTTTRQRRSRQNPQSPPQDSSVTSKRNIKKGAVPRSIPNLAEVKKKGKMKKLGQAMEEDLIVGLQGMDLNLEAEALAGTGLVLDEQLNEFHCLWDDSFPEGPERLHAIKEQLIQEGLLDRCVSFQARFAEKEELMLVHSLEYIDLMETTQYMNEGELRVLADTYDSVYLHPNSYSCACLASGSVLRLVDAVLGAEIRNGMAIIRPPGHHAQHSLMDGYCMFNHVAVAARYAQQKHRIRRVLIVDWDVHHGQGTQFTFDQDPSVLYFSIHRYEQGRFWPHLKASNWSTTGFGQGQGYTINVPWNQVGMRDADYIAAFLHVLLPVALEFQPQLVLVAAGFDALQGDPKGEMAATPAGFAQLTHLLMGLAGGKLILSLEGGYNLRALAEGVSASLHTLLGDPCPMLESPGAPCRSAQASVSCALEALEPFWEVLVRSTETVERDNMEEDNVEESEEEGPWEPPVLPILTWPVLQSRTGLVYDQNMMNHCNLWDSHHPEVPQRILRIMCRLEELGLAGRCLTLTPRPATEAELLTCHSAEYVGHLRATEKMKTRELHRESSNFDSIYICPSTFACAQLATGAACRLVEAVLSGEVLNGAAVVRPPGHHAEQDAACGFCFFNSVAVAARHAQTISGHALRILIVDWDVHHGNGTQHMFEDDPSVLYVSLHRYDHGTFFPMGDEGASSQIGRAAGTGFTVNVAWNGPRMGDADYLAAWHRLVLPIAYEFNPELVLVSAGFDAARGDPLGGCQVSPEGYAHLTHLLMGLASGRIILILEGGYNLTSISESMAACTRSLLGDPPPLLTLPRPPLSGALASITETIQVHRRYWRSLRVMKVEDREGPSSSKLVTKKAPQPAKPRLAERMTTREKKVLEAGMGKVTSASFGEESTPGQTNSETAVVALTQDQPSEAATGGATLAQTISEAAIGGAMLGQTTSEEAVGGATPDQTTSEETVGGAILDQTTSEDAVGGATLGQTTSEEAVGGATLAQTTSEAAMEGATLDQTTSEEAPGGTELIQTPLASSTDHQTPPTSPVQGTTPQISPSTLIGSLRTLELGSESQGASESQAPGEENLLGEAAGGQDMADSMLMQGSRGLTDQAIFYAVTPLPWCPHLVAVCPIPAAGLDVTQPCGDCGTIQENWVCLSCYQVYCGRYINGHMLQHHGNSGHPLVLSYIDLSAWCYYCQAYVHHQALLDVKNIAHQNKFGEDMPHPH
Description: as §1

SMILES: CCCCN1CC(N2CCC(F)(C(=O)N(Cc3ccc(-c4nnc(C(F)F)o4)cn3)c3cccc(F)c3)CC2)C1 [Compound 3391, 1-(1-butylazetidine-3-yl)-N-((5-(5-(difluoromethyl)-1,3,4-oxadiazol-2-yl)pyridin-2-yl)methyl)-4-fluoro-N-(3-fluorophenyl)piperidine-4-carboxamide]
- IC50 (human recombinant HDAC1): 28500 nM
- HDAC6 selectivity (fold) (human recombinant HDAC6): 1,361 fold
- IC50 (human recombinant HDAC6): 20.9 nM

SMILES: COCCC(=O)N1CC(F)(C(=O)N(Cc2ccc(-c3nnc(C(F)F)o3)cn2)c2ccccc2)C1 [Compound 3157, N-((5-(5-(difluoromethyl)-1,3,4-oxadiazol-2-yl)pyridin-2-yl)methyl)-3-fluoro-1-(3-methoxypropanoyl)-N-phenylazetidine-3-carboxamide]
- IC50 (human recombinant HDAC1): > 50000 nM
- HDAC6 selectivity (fold) (human recombinant HDAC6): 941 fold
- IC50 (human recombinant HDAC6): 53.1 nM

SMILES: CC(C)C(=O)N1CC(F)(C(=O)N(Cc2ccc(-c3nnc(C(F)F)o3)cc2F)c2ccccc2)C1 [Compound 3434, N-(4-(5-(difluoromethyl)-1,3,4-oxadiazol-2-yl)-2-fluorobenzyl)-3-fluoro-1-isobutyryl N-phenylazetidine-3-carboxamide]
- IC50 (human recombinant HDAC1): > 50000 nM
- HDAC6 selectivity (fold) (human recombinant HDAC6): 441 fold
- IC50 (human recombinant HDAC6): 113 nM

SMILES: CC(C)CN1CC(N2CCC(F)(C(=O)N(Cc3ccc(-c4nnc(C(F)F)o4)cn3)c3cccc(F)c3)CC2)C1 [Compound 3392, N-((5-(5-(difluoromethyl)-1,3,4-oxadiazol-2-yl)pyridin-2-yl)methyl)-4-fluoro-N-(3-fluorophenyl)-1-(1-isobutylazetidine-3-yl)piperidine-4-carboxamide]
- IC50 (human recombinant HDAC1): 44600 nM
- HDAC6 selectivity (fold) (human recombinant HDAC6): 2,348 fold
- IC50 (human recombinant HDAC6): 19 nM

SMILES: O=C(C1CC1)N1CC(F)(C(=O)N(Cc2ccc(-c3nnc(C(F)F)o3)cn2)c2cccc(F)c2)C1 [Compound 3217, 1-(cyclopropanecarbonyl)-N-((5-(5-(difluoromethyl)-1,3,4-oxadiazol-2-yl)pyridin-2-yl)methyl)-3-fluoro-N-(3-fluorophenyl)azetidine-3-carboxamide]
- IC50 (human recombinant HDAC1): > 50000 nM
- HDAC6 selectivity (fold) (human recombinant HDAC6): 1,440 fold
- IC50 (human recombinant HDAC6): 34.7 nM

SMILES: CC(C)N1CCC(N2CC(F)(C(=O)N(Cc3ccc(-c4nnc(C(F)F)o4)cn3)c3ccccc3)C2)CC1 [Compound 3115, N-((5-(5-(difluoromethyl)-1,3,4-oxadiazol-2-yl)pyridin-2-yl)methyl)-3-fluoro-1-(1-isopropylpiperidin-4-yl)-N-phenylazetidine-3-carboxamide]
- IC50 (human recombinant HDAC1): > 50000 nM
- HDAC6 selectivity (fold) (human recombinant HDAC6): 2,040 fold
- IC50 (human recombinant HDAC6): 24.5 nM

SMILES: O=C(N(Cc1ccc(-c2nnc(C(F)F)o2)cn1)c1cccc(F)c1)C1(F)CN(CC2CCOCC2)C1 [Compound 3218]
- IC50 (human recombinant HDAC1): > 50000 nM
- HDAC6 selectivity (fold) (human recombinant HDAC6): 1,187 fold
- IC50 (human recombinant HDAC6): 42.1 nM

SMILES: O=C(N(Cc1ccc(-c2nnc(C(F)F)o2)cn1)c1cccc(F)c1)C1(F)CN(C2CCN(C3COC3)CC2)C1 [Compound 3406, N-((5-(5-(difluoromethyl)-1,3,4-oxadiazol-2-yl)pyridin-2-yl)methyl)-3-fluoro-N-(3-fluorophenyl)-1-(1-(oxetan-3-yl)piperidin-4-yl)azetidine-3-carboxamide]
- IC50 (human recombinant HDAC1): 26600 nM
- HDAC6 selectivity (fold) (human recombinant HDAC6): 734 fold
- IC50 (human recombinant HDAC6): 36.2 nM

SMILES: O=C(N(Cc1ccc(-c2nnc(C(F)F)o2)cn1)c1cccc(F)c1)C1(F)CN(C2CN(C3CCCCC3)C2)C1 [Compound 3398, 1′-cyclohexyl-N-((5-(5-(difluoromethyl)-1,3,4-oxadiazol-2-yl)pyridin-2-yl)methyl)-3-fluoro-N-(3-fluorophenyl)-[1,3′-biazetidine]-3-carboxamide]
- IC50 (human recombinant HDAC1): 27500 nM
- HDAC6 selectivity (fold) (human recombinant HDAC6): 1,374 fold
- IC50 (human recombinant HDAC6): 20 nM

SMILES: O=C(N(Cc1ccc(-c2nnc(C(F)F)o2)cn1)c1cccc(F)c1)C1(F)CN(C2CCOC2)C1 (stereo not drawn) [Compound 3052, N-((5-(5-(difluoromethyl)-1,3,4-oxadiazol-2-yl)pyridin-2-yl)methyl)-3-fluoro-N-(3-fluorophenyl)-1-(tetrahydrofuran-3-yl)azetidine-3-carboxamide]
- IC50 (human recombinant HDAC1): > 50000 nM
- HDAC6 selectivity (fold) (human recombinant HDAC6): 854 fold
- IC50 (human recombinant HDAC6): 58.5 nM

SMILES: CC(C)N1CC(N2CCC(F)(C(=O)N(Cc3ccc(-c4nnc(C(F)F)o4)cn3)c3cccc(F)c3)CC2)C1 [Compound 3393, N-((5-(5-(difluoromethyl)-1,3,4-oxadiazol-2-yl)pyridin-2-yl)methyl)-4-fluoro-N-(3-fluorophenyl)-1-(1-isopropylazetidine-3-yl)piperidin-4-carboxamide]
- IC50 (human recombinant HDAC1): > 50000 nM
- HDAC6 selectivity (fold) (human recombinant HDAC6): 2,717 fold
- IC50 (human recombinant HDAC6): 18.4 nM

SMILES: CCC(=O)N1CC(F)(C(=O)N(Cc2ccc(-c3nnc(C(F)F)o3)cc2F)c2ccccc2)C1 [Compound 3433, N-(4-(5-(difluoromethyl)-1,3,4-oxadiazol-2-yl)-2-fluorobenzyl)-3-fluoro-N-phenyl-1-propionylazetidine-3-carboxamide]
- IC50 (human recombinant HDAC1): 38500 nM
- HDAC6 selectivity (fold) (human recombinant HDAC6): 448 fold
- IC50 (human recombinant HDAC6): 85.9 nM

SMILES: CCC(=O)N1CC(F)(C(=O)N(Cc2ccc(-c3nnc(C(F)F)o3)cn2)c2cccc(F)c2)C1 [Compound 3163, N-((5-(5-(difluoromethyl)-1,3,4-oxadiazol-2-yl)pyridin-2-yl)methyl)-3-fluoro-N-(3-fluorophenyl)-1-propionylazetidine-3-carboxamide]
- IC50 (human recombinant HDAC1): > 50000 nM
- HDAC6 selectivity (fold) (human recombinant HDAC6): 2,155 fold
- IC50 (human recombinant HDAC6): 23.2 nM

SMILES: CCCCN1CC(N2CC(F)(C(=O)N(Cc3ccc(-c4nnc(C(F)F)o4)cn3)c3cccc(F)c3)C2)C1 [Compound 3222, 1′-butyl-N-((5-(5-(difluoromethyl)-1,3,4-oxadiazol-2-yl)pyridin-2-yl)methyl)-3-fluoro-N-(3-fluorophenyl)-[1,3′-biazetidine]-3-carboxamide]
- IC50 (human recombinant HDAC1): > 50000 nM
- HDAC6 selectivity (fold) (human recombinant HDAC6): 1,420 fold
- IC50 (human recombinant HDAC6): 35.2 nM

SMILES: CS(=O)(=O)N1CCC(F)(C(=O)N(Cc2ccc(-c3nnc(C(F)F)o3)cc2F)c2ccccc2)CC1 [Compound 3442, N-(4-(5-(difluoromethyl)-1,3,4-oxadiazol-2-yl)-2-fluorobenzyl)-4-fluoro-1-(methylsulfonyl)-N-phenylpiperidine-4-carboxamide]
- IC50 (human recombinant HDAC1): > 50000 nM
- HDAC6 selectivity (fold) (human recombinant HDAC6): 154 fold
- IC50 (human recombinant HDAC6): 324 nM

SMILES: O=C(N(Cc1ccc(-c2nnc(C(F)F)o2)cn1)c1cccc(F)c1)C1(F)CN(C2CN(C3CCOC3)C2)C1 (stereo not drawn) [Compound 3397, N-((5-(5-(difluoromethyl)-1,3,4-oxadiazol-2-yl)pyridin-2-yl)methyl)-3-fluoro-N-(3-fluorophenyl)-1′-(tetrahydrofuran-3-yl)-[1,3′-biazetidine]-3-carboxamide]
- IC50 (human recombinant HDAC1): 23700 nM
- HDAC6 selectivity (fold) (human recombinant HDAC6): 1,022 fold
- IC50 (human recombinant HDAC6): 23.2 nM

SMILES: CCCC(=O)N1CC(F)(C(=O)N(Cc2ccc(-c3nnc(C(F)F)o3)cn2)c2ccccc2)C1 [Compound 3154, 1-butyryl-N-((5-(5-(difluoromethyl)-1,3,4-oxadiazol-2-yl)pyridin-2-yl)methyl)-3-fluoro-N-phenylazetidine-3-carboxamide]
- IC50 (human recombinant HDAC1): > 50000 nM
- HDAC6 selectivity (fold) (human recombinant HDAC6): 1,506 fold
- IC50 (human recombinant HDAC6): 33.2 nM

SMILES: CCN1CC(N2CC(F)(C(=O)N(Cc3ccc(-c4nnc(C(F)F)o4)cn3)c3cccc(F)c3)C2)C1 [Compound 3220, N-((5-(5-(difluoromethyl)-1,3,4-oxadiazol-2-yl)pyridin-2-yl)methyl)-1′-ethyl-3-fluoro-N-(3-fluorophenyl)-[1,3′-biazetidine]-3-carboxamide]
- IC50 (human recombinant HDAC1): > 50000 nM
- HDAC6 selectivity (fold) (human recombinant HDAC6): 1,272 fold
- IC50 (human recombinant HDAC6): 39.3 nM
